Data from patent US9458203B2, “Integrin-blocking polypeptides and uses thereof” (priority 2011, dated 2016).
Where “and” joins values, the source holds several entries; their conditions need not be identical. Equal entries are not always repeated. Where two headings read alike, the source gives them in different places.

How the values were obtained:
[1] = system: human umbilical vein endothelial cells (HUVECs); assay: inhibition of capillary formation of HUVECs (matrigel); format: cell-based; settings: 10 μg/ml; for inhibition at 10 µg/mL: Homo sapiens, HUVEC, read-out: inhibition rate (%) of capillary formation
Procedure: Thawing 10 mg/mL matrigel (BD Company, USA) stocked at −20° C. overnight at 4° C., diluting it with HUVEC culture medium at the ratio of 1:1; smearing 30 μl of the solution on a 96-well plate (Greiner Company, USA), placing the plate at a 37 incubator for 1 h of aggregation. Digesting the HUVECs with 0.2% ethylene diamine tetraacetic acid (EDTA) when they reached the logarithmic phase; collecting the cells and washing them with PBS buffer twice, and then resuspending the cells with blank HUVEC culture medium. Counting the cells under a microscope, adjusting the cell concentration to 1×10^5 cells/ml. Preparing the testing solution for all groups, and diluting with blank HUVEC culture medium to 100 μl. Seeding the cells into the 96-well plate, 100 μl for each well, adding also the testing solution into each well and incubating the cells in 5% CO2 at 37° C. After 6 h, 12 h, 24 h, 36 h, 48 h, 60 h of incubation, randomly choosing 5 FOVs for each dose, photographing and counting the cells; calculating the number of capillary structures at different doses and analyzing the inhibition effect of polypeptide II and polypeptide III on HUVECs' differentiating into capillaries. The inhibition rate of capillary formation was calculated in accordance with the following formula: […]
wherein Ntest is the number of capillary structures in the test groups while Ncontrol is the number of capillary structures in the negative control group.

melanoma B16F10 = assay: transplanted melanoma B16F10 in C57BL/6 black mice
Procedure: Hypodermically injecting polypeptides and other drugs into the left axillary region of mice from the experimental groups respectively while administering only equal quantity of physiological saline to the mice from the negative control group. The total medication period was 14 days, during which cyclophosphamide was administered once every other day, taxol once every three days, low-dose polypeptide twice a day and all other drugs once a day.

[2] = system: human liver cancer SMMC-7721
Procedure: (§1) Taking a certain amount of vigorously growing tumor tissue, grinding the tumor tissue under sterile conditions and preparing cell suspension at the concentration of 1×10^7 cells/ml; then hypodermicaly inoculating 0.1 ml of the cell suspension into the right axillary region of nude mice. Keeping measuring the diameter of the transplanted tumor with a vernier caliper, and randomly dividing the mice into groups when the volume of the tumor reached 100-200 mm^3. Observing the dynamic effect of integrin-blocking polypeptides on inhibiting the growth of the tumor by means of documenting the change of tumor diameters. Measuring the tumor diameter once every other day and recording the body weight of mice simultaneously. Intravenously injecting polypeptides to mice from test groups while administering equal quantity of physiological saline to mice from the negative control group. The total medication period was 14 days. Avastin was adopted to set up a positive control group; it was administered through the tail vein once every three days while all other drugs were administered through the tail vein once a day. Leaving mice for a one-week rest after 14 days' medication, then (21 days after medication) killing the mice, surgically dissecting the tumors and measuring the weight of tumors. The tumor volume (TV) was calculated in accordance with the following formula: TV=½×a×b^2
(§2) Taxol used in the positive control group was administered once every 3 days through tail vein injection, while drugs of all other groups were administered on daily basis through tail vein injection.

[3] = system: human endometrial cancer HHUA
Procedure: as §1, §2

[4] = system: human rectal cancer Colo 320
Procedure: as §1, §2

[5] = 10 mg/kg/time, tail vein once every 3 days
[6] = positive control, tail vein once every 3 days
[7] = taxol 10 mg/kg/time, once every 3 days, tail vein injection

Procedure for human brain tumor SF763: as §1, §2
Procedure for human lung cancer H460: as §1, §2

CC(=O)O[C@H]1C(=O)[C@@]2(C)[C@H]([C@H](OC(=O)c3ccccc3)[C@]3(O)C[C@H](OC(=O)[C@H](O)[C@@H](NC(=O)c4ccccc4)c4ccccc4)C(C)=C1C3(C)C)[C@]1(OC(C)=O)CO[C@@H]1C[C@@H]2O [taxol, reference compound]
number of capillary structures (mean ± SD) ([1]; 6 h): 0.0 ± 0.0
number of capillary structures (mean ± SD) ([1]; 12 h): 0.0 ± 0.0
inhibition at 10 µg/mL ([1]; 6 h): 100%
inhibition at 10 µg/mL ([1]; 12 h): 100%
tumor weight (melanoma B16F10; 10 mg/kg/time once every three days, hypodermic, 14 days): 0.77 ± 0.62 g and 0.98 ± 0.30 g
body weight of animals, in words (melanoma B16F10; mouse, in vivo): greatly reduced the body weight
toxic and side effects, in words (melanoma B16F10; mouse, in vivo): severer toxic and side effects
tumor inhibition rate (human lung cancer H460; [5]): 68.21%
tumor weight (human lung cancer H460; [5]): 0.28 ± 0.07 g
body weight of animals, in words (human lung cancer H460; mouse, in vivo): greatly reduced the body weight
toxic and side effects, in words (human lung cancer H460; mouse, in vivo): more apparent toxic and side effects
tumor inhibition rate [2, 5]: 78.10%
tumor weight [2, 5]: 0.28 ± 0.05 g
body weight of animals, in words ([2]; mouse, in vivo): greatly reduced the body weight
toxic and side effects, in words ([2]; mouse, in vivo): more apparent toxic and side effects
tumor weight [3, 5]: 0.23 ± 0.07 g
body weight of animals, in words ([3]; mouse, in vivo): greatly reduced the body weight
toxic and side effects, in words ([3]; mouse, in vivo): more apparent toxic and side effects
body weight of animals, in words (human brain tumor SF763; mouse, in vivo): greatly reduced the body weight
toxic and side effects, in words (human brain tumor SF763; mouse, in vivo): more apparent toxic and side effects
inhibition rate on tumor (human brain tumor SF763; [6]): 76.29%
tumor inhibition rate (human brain tumor SF763; [7]): 76.29%
tumor weight (human brain tumor SF763; [7]): 0.28 ± 0.07 g
body weight of animals, in words ([4]; mouse, in vivo): greatly reduced the body weight
toxic and side effects, in words ([4]; mouse, in vivo): more apparent toxic and side effects
inhibition rate on tumor [4, 6]: 76.62%
tumor inhibition rate [4, 7]: 76.62%
tumor weight [4, 7]: 0.29 ± 0.07 g
